In ChEMBL document CHEMBL2177010, “Discovery and preclinical pharmacology of a selective ATP-competitive Akt inhibitor (GDC-0068) for the treatment of human tumors” (J Med Chem, 2012):
Calls of active or inactive are those of the source. The rule behind the calls is not given here.

Experiments:
[1] = Competitive inhibition of PKA expressed in Escherichia coli assessed as fluorescence labeled peptide substrate phosphorylation after 60 mins in presence of ATP
[2] = target: T1, RAC-alpha serine/threonine-protein kinase (Homo sapiens, UniProt P31749)
T1 sequence (P31749 whole entry): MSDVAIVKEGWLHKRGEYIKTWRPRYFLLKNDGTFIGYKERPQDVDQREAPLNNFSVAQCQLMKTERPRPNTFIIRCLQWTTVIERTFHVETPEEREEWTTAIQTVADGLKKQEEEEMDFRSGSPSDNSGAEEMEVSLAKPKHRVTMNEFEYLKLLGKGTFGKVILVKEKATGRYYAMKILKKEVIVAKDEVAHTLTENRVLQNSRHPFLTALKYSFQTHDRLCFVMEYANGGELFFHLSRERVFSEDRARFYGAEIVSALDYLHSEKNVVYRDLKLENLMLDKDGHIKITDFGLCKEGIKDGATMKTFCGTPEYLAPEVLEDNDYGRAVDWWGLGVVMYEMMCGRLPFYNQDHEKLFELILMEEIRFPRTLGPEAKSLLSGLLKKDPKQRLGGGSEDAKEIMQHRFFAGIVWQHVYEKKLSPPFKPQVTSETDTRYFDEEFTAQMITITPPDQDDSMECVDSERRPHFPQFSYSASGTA
Description: Inhibition of Akt1 in human LNCAP cells assessed as phosphorylation of PRAS40 at Thr246 after 1.5 hrs

[3] = target: RAC-gamma serine/threonine-protein kinase (Homo sapiens, UniProt Q9Y243)
RAC-gamma serine/threonine-protein kinase, sequence (Q9Y243 whole entry): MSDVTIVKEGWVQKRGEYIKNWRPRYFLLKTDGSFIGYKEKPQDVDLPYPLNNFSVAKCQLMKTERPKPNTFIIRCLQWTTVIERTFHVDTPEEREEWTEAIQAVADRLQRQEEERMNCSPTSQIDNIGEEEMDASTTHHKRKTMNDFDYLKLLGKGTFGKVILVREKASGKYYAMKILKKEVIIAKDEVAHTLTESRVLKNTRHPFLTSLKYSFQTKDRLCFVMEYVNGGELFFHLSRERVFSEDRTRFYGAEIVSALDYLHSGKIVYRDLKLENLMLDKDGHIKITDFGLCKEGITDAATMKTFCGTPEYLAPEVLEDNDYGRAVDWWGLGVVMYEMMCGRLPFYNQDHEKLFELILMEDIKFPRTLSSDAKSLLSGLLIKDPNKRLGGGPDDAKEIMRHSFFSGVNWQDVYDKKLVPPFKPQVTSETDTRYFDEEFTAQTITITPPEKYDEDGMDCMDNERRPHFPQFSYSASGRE
Description: Competitive inhibition of wild-type full-length amino-terminal polyhistidine-tagged human Akt3 expressed in recombinant baculovirus system using fluorescence labeled Crosstide as substrate after 60 mins by fluorescence polarization assay in presence of ATP

[4] = target: T1, RAC-alpha serine/threonine-protein kinase; remark: listed apart in the source
Description: Competitive inhibition of wild-type full-length amino-terminal polyhistidine-tagged human Akt1 expressed in recombinant baculovirus system using fluorescence labeled substrate after 60 mins by fluorescence polarization assay in presence of ATP

[5] = system: PC-3; assay: Antitumor activity against human PC3 xenografted in po dosed nu/nu mouse assessed as inhibition of tumor growth administered once daily measured after 11 days; type: functional; conditions: PC-3, po, 264 h, read-out: MED
[6] = system: Mus musculus; assay: Inhibition of Akt in nu/nu mouse xenografted with human PC3 cells assessed as decrease in tumor p-PRAS40 level at 100 mg/kg, po within 3 hrs by ELISA relative to total PRAS40; type: functional; conditions: PC-3, 3 h
[7] = system: MCF7; assay: Cytotoxicity against human MCF7 cells overexpressing Her2 assessed as decrease in cell viability after 96 hrs by CellTitre-Glo assay; conditions: MCF7, 96 h
[8] = Plasma concentration in nu/nu mouse xenografted with human PC3 cells at 50 mg/kg, po at 9 hrs by LC/MS/MS analysis; type: ADME, organism-based, PC-3; design: dose 50 mg/kg, route oral
[9] = system: PC-3; assay: Antitumor activity against human PC3 xenografted in nu/nu mouse assessed as inhibition of tumor growth at 50 mg/kg, po bid after 11 days; type: functional; conditions: PC-3, 264 h, read-out: TGI
[10] = Plasma concentration in nu/nu mouse xenografted with human PC3 cells at 50 mg/kg, po at 1 hr by LC/MS/MS analysis; type: ADME, organism-based, PC-3; design: dose 50 mg/kg, route oral
[11] = system: BT-474; assay: Cytotoxicity against human BT474M1 cells assessed as decrease in cell viability after 96 hrs by CellTitre-Glo assay; conditions: BT474M1, 96 h
[12] = system: LNCaP; assay: Cytotoxicity against human LNCAP cells assessed as reduction of resazurin to resorufin after 72 hrs
[13] = Solubility of the compound at pH 1.2 to 7.4; type: physicochemical; conditions: buffer
[14] = system: Mus musculus; assay: Toxicity in nu/nu mouse xenografted with human PC3 cells assessed as loss in body weight at 1 to 100 mg/kg, po qd relative to vehicle-treated control; type: organism-based, PC-3; design: dose 1-100 mg/kg, route oral; conditions: in vivo
[15] = Plasma concentration in nu/nu mouse xenografted with human PC3 cells at 100 mg/kg, po at 8 hrs by LC/MS/MS analysis; type: ADME, organism-based, PC-3; design: dose 100 mg/kg, route oral
[16] = target: T1, RAC-alpha serine/threonine-protein kinase; conditions: BT474M1
Description: Inhibition of Akt1-mediated PRAS40 phosphorylation in human BT474M1 cells

[17] = system: PC-3; assay: Antitumor activity against human PC3 xenografted in nu/nu mouse assessed as inhibition of tumor growth at 25 mg/kg, po qd after 11 days; type: functional; conditions: PC-3, 264 h, read-out: TGI
[18] = Plasma concentration in nu/nu mouse xenografted with human PC3 cells at 50 mg/kg, po within 1 hr by LC/MS/MS analysis; type: ADME, organism-based, PC-3; design: dose 50 mg/kg, route oral
[19] = Plasma concentration in nu/nu mouse xenografted with human PC3 cells at 12.5 mg/kg, po within 1 hr by LC/MS/MS analysis; type: ADME, organism-based, PC-3; design: dose 12.5 mg/kg, route oral
[20] = system: Mus musculus; assay: Inhibition of Akt in nu/nu mouse xenografted with human PC3 cells assessed as decrease in tumor p-PRAS40 level at 100 mg/kg, po at 8 hrs by ELISA relative to total PRAS40; type: functional; conditions: PC-3, 8 h
[21] = system: PC-3; assay: Antitumor activity against human PC3 xenografted in nu/nu mouse assessed as inhibition of tumor growth at 100 mg/kg, po qd after 11 days; type: functional; conditions: PC-3, 264 h, read-out: TGI
[22] = system: Mus musculus; assay: Toxicity in nu/nu mouse xenografted with human PC3 cells assessed as loss in body weight at 150 mg/kg, po qd after 8 days relative to vehicle-treated control; type: organism-based, PC-3; design: dose 150 mg/kg, route oral; conditions: in vivo, 192 h
[23] = system: PC-3; assay: Cytotoxicity against human PC3 cells assessed as decrease in cell viability after 96 hrs by CellTitre-Glo assay; conditions: PC-3, 96 h
[24] = Permeability across basolateral to apical side in human Caco2 cells; type: ADME, cell-based; conditions: Caco-2, read-out: permeability
[25] = Permeability across apical to basolateral side in human Caco2 cells; type: ADME, cell-based; conditions: Caco-2, read-out: permeability

| IC50 [1] [nM] | IC50 [2] [nM] | IC50 [3] [nM] | IC50 [4] [nM] | SMILES | further results |
| --- | --- | --- | --- | --- | --- |
| 153 |  |  |  | C[C@@H]1C[C@@H](O)c2ncnc(N3CCN(C(=O)[C@H](CNC(C)(C)C)c4ccc(C(F)(F)F)c(F)c4)CC3)c21 |  |
| 777 |  |  |  | C[C@@H]1C[C@@H](O)c2ncnc(N3CCN(C(=O)[C@H](CNCC4CC4)c4ccc(Cl)cc4)CC3)c21 |  |
| 418 | 603 | 27 | 12 | C[C@@H]1C[C@@H](O)c2ncnc(N3CCN(C(=O)[C@H](CN)c4ccc(C(F)(F)F)cc4)CC3)c21 |  |
| 654 |  |  |  | C[C@@H]1C[C@@H](O)c2ncnc(N3CCN(C(=O)[C@H](CNC4CCOCC4)c4ccc(Cl)cc4)CC3)c21 |  |
| 293 | 75 | 3 | 2 | C[C@@H]1C[C@@H](O)c2ncnc(N3CCN(C(=O)[C@H](CNC(C)(C)CO)c4ccc(Cl)cc4)CC3)c21 |  |
| 1280 | 367 | 7 | 9 | C[C@@H]1C[C@@H](O)c2ncnc(N3CCN(C(=O)[C@H](CNC4CCCCC4)c4ccc(Cl)cc4)CC3)c21 |  |
| 103 |  | 2 |  | C[C@@H]1C[C@@H](O)c2ncnc(N3CCN(C(=O)[C@H](CNCC4CC4)c4ccc(C(F)(F)F)c(F)c4)CC3)c21 |  |
| 17 |  | 10 |  | CC(C)NC[C@@H](C(=O)N1CCN(c2ncnc3c2[C@H](C)C[C@H]3F)CC1)c1ccc(Cl)cc1 |  |
| > 10000 |  | 798 | 902 | C[C@@H]1C[C@@H](O)c2ncnc(N3CCN(C(=O)[C@H](CNCC(F)(F)F)c4ccc(Cl)cc4)CC3)c21 |  |
| 700 | 1450 | 45 | 24 | C[C@@H]1C[C@@H](O)c2ncnc(N3CCN(C(=O)[C@H](CN)c4ccc(Cl)cc4)CC3)c21 |  |
| 662 | 132 | 4 | 5 | CO[C@H]1CC[C@H](NC[C@@H](C(=O)N2CCN(c3ncnc4c3[C@H](C)C[C@H]4O)CC2)c2ccc(Cl)cc2)CC1 |  |
| 1320 | 1300 | 21 | 12 | C[C@@H]1C[C@@H](O)c2ncnc(N3CCN(C(=O)[C@H](CNCCF)c4ccc(Cl)cc4)CC3)c21 |  |
| 1200 | 196 |  | 6 | C[C@@H]1C[C@@H](O)c2ncnc(N3CCN(C(=O)[C@H](CN4CCC(F)CC4)c4ccc(Cl)cc4)CC3)c21 |  |
| 436 | 102 | 4 | 3 | C[C@@H]1C[C@@H](O)c2ncnc(N3CCN(C(=O)[C@H](CNCC4CCOCC4)c4ccc(Cl)cc4)CC3)c21 |  |
| 1550 |  |  |  | CC(C)NC[C@@H](C(=O)N1CCN(c2ncnc3c2[C@H](C)C[C@@H]3O)CC1)c1ccc(Cl)cc1 |  |
| 2140 | 139 |  | 18 | CC(C)N(C)C[C@@H](C(=O)N1CCN(c2ncnc3c2[C@H](C)C[C@H]3O)CC1)c1ccc(Cl)cc1 |  |
| 1000 | 384 | 13 | 8 | COCCNC[C@@H](C(=O)N1CCN(c2ncnc3c2[C@H](C)C[C@H]3O)CC1)c1ccc(Cl)cc1 |  |
| 541 |  | 23 |  | CC(C)NC[C@@H](C(=O)N1CCN(c2ncnc3c2[C@H](C)C[C@@H]3F)CC1)c1ccc(Cl)cc1 |  |

Continued, molecule first:

| SMILES | IC50 [1] [nM] | IC50 [2] [nM] | IC50 [3] [nM] | IC50 [4] [nM] | further results |
| --- | --- | --- | --- | --- | --- |
| C[C@@H]1C[C@@H](O)c2ncnc(N3CCN(C(=O)[C@H](CNC4CCOCC4)c4ccc(Cl)c(F)c4)CC3)c21 | 556 | 139 | 12 | 12 |  |
| CC(C)NC[C@@H](C(=O)N1CCN(c2ncnc3c2[C@H](C)C[C@H]3O)CC1)c1ccc(Cl)c(F)c1 | 490 | 234 | 7 | 3 |  |
| C[C@@H]1C[C@@H](O)c2ncnc(N3CCN(C(=O)[C@@H](c4ccc(Cl)cc4)[C@@H]4COCCN4)CC3)c21 | 1360 | 855 | 26 | 12 |  |
| CC(C)NC[C@@H](C(=O)N1CCN(c2ncnc3c2[C@H](CO)CC3)CC1)c1ccc(Cl)cc1 | 957 | 846 | 83 | 81 |  |
| C[C@@H]1C[C@@H](O)c2ncnc(N3CCN(C(=O)[C@H](CNC(C)(C)CO)c4ccc(C(F)(F)F)c(F)c4)CC3)c21 | 75 |  | 2 |  |  |
| CC(C)NC[C@@H](C(=O)N1CCN(c2ncnc3c2[C@H](C)C[C@H]3O)CC1)c1ccc(Cl)cc1 [IPATASERTIB] | 3100 |  |  |  | minimal effective dose [5]: 25 mg/kg; inhibition in vivo at 100 mg/kg [6]: > 95%; IC50 [7]: 1000 nM; concentration at 9 h [8]: 500 nM; inhibition in vivo at 50 mg/kg [9]: 81%; concentration at 1 h [10]: 7400 nM; IC50 [11]: 1000 nM; IC50 [12]: 95 nM; solubility [13]: > 10000 µg/mL; Activity [14]: < 10%; concentration at 8 h [15]: > 2600 nM; inhibition [16]: Active; inhibition in vivo at 25 mg/kg [17]: 49%; concentration at 1 h [18]: ≥ 200 nM; concentration at 1 h [19]: ≥ 200 nM; inhibition in vivo at 100 mg/kg [20]: 87%; inhibition in vivo at 100 mg/kg [21]: 79%; Activity [22]: >= 20%; IC50 [23]: 1000 nM |
| C[C@@H]1C[C@@H](O)c2ncnc(N3CCN(C(=O)[C@@H](c4ccc(Cl)cc4)[C@@H]4CCCN4)CC3)c21 | 271 | 241 | 5 | 3 |  |
| CC(C)NC[C@@H](C(=O)N1CCN(c2ncnc3c2C(C)(C)CC3)CC1)c1ccc(Cl)cc1 | > 2000 |  | > 2000 |  |  |
| CC(C)NC[C@@H](C(=O)N1CCN(c2ncnc3c2[C@H](CF)CC3)CC1)c1ccc(Cl)cc1 | 35 | 123 | 5 | 3 |  |
| C[C@@H]1C[C@@H](O)c2ncnc(N3CCN(C(=O)[C@@H](c4ccc(Cl)cc4)[C@@H]4CCCCN4)CC3)c21 | 1600 | 530 | 12 | 9 |  |
| C=C[C@@H]1CCc2ncnc(N3CCN(C(=O)[C@H](CNC(C)C)c4ccc(Cl)cc4)CC3)c21 | 10 | 176 | 1 | 2 |  |
| CC(C)NC[C@@H](C(=O)N1CCN(c2ncnc3c2[C@H](C)CC3)CC1)c1ccc(Cl)cc1 | 33 | 287 | 5 | 6 | Papp B→A [24]: 19.2 ×10⁻⁶ cm/s; Papp A→B [25]: 13.2 ×10⁻⁶ cm/s |
| CC(C)NC[C@@H](C(=O)N1CCN(c2ncnc3c2[C@H](C)CC3(F)F)CC1)c1ccc(Cl)cc1 | > 10000 | 8550 |  | 1170 |  |
